{"source": "patent US20180110757A1", "about": "“METHODS OF TREATING PRURITIS AND PAIN” (The Regents of the University of California, priority 2016, published 2018)", "key": {"[1]": {"molecular_target": "T1, S1PR3 (Mus musculus, UniProt Q9Z0U9)", "T1 construct": "attenuates S1P-evoked calcium responses in wild-type DRG sensory neurons; endogenous in cells; host or cells: cultured mouse dorsal root ganglion (DRG) neurons, wild-type", "T1 sequence (Q9Z0U9 whole entry)": "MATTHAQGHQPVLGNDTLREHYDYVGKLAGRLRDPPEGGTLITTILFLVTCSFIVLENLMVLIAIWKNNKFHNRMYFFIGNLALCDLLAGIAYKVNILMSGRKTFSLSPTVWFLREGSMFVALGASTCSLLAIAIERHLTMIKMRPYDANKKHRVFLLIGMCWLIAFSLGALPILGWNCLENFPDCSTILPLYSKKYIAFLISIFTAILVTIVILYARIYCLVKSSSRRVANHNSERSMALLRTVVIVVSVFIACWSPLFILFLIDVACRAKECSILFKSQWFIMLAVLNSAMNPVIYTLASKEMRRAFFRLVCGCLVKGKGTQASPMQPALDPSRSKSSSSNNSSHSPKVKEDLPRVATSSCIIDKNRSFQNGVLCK", "experiment": "Ratiometric calcium imaging in cultured DRG neurons", "type": "cell-based, mice", "conditions": "for calcium responses in cultured DRG neurons: S1P 100 nM, CYM 100 μM", "procedure": "FIG. 1A-1G. A. Graphical model illustrating the role of S1PR3-evoked itch in somatosensory neurons of the dorsal root ganglion (DRG). […] C. […] D. Venn diagram displaying overlap of S1P responsive neurons from ratiometric calcium imaging with known pruritogens and algogens in cultured DRG neurons. Pruritogens: HIS=histamine, CQ=chloroquine. Algogens: CAP=capsaicin, AITC=allyl-isothiocyanate. Data were collected from n>4,000 neurons. E. Scratching behavioral data for mice injected with 200 nM S1P or 0.1% methanol-PBS vehicle intradermally into the rostral back. WT=wild-type, A1 −/−=Trpa1-deficient knockout mice. Scratching behaviors were recorded 30 minutes post injection. […] G. S1pr3 transcript levels were quantified using qRT-PCR from skin of mice treated with vitamin D or ethanol control for 7 days to induce an atopic dermatitis-like condition. Data were normalized to Gapdh housekeeping gene. For all data, one way ANOVA was performed with a Tukey-Kramer post hoc statistical test. Tukey-Kramer values are reported and only p<0.05 were considered significant, ***=p<0.001. n.s.=not significant."}, "[2]": {"tested_on": "mice", "experiment": "Scratching behavior after intradermal injection into the rostral back", "type": "in vivo"}, "[3]": {"tested_on": "KCNQ2/3 potassium channels (M channels)", "experiment": "Excitability of mechanical nociceptor DRG neurons in vitro", "type": "cell-based", "conditions": "via S1PR3, through closure of KCNQ2/3 potassium channels", "from_the_text": "In situ RNA hybridization studies and protein localization studies indicate that S1pr3 is expressed in thermal nociceptors and mechanical nociceptors, as well as nociceptive free nerve endings in skin."}, "[4]": {"tested_on": "wild-type mice", "experiment": "Mechanical pain sensitivity (von Frey, tactile stimuli) in healthy wild-type mice", "type": "in vivo", "from_the_text": "Likewise, in S1pr3^−/− mice, radiant heat withdrawal latencies were normal.\nPharmacological manipulation of S1PR3 or reduction of S1P levels lessens mechanical pain sensation in wild-type mice without affecting innocuous touch.\nBlockade of S1PR1 with the selective antagonist W146 has no effect on mechanosensitivity. Tonic levels of S1P in the skin are responsible for S1PR3-mediated mechanical pain sensation."}, "[5]": {"tested_on": "wild-type mice", "experiment": "Complete Freund's Adjuvant (CFA) model of chronic inflammation", "type": "in vivo", "from_the_text": "S1PR3 knockout mice treated with CFA fail to develop thermal hypersensitivity and display normal mechanical sensitivity due to their baseline defect in mechanical pain sensation. They also display lessened paw swelling, possibly due to decreased neurogenic inflammation. […] Loss of S1P production with acute SKI II injection into the CFA-treated paw also reverses CFA thermal hypersensitivity."}, "[6]": {"conditions": "S1PR3-deficient (S1PR3 −/−) mice"}, "[7]": {"conditions": "wildtype mice (WT), compared to physiological saline control"}, "[8]": {"conditions": "wild-type mice, intradermal administration"}, "[9]": {"conditions": "wild-type mice, delivered to the hindpaw after induction of CFA pain"}}}
{"smiles": "O=C(c1cc(C2CC2)on1)N(C1CCCCC1)C1CCCCC1", "note": "[CYM 5541]", "values": [{"measurement": "calcium responses in cultured DRG neurons", "setting": "[1]; [6]", "result": "lack calcium responses"}, {"measurement": "calcium responses in cultured DRG neurons", "setting": "[1]; [7]", "result": "robust responses"}]}
{"smiles": "CCCCCCCCCCCCC/C=C/[C@@H](O)[C@@H](N)COP(=O)(O)O", "note": "[S1P, Sphingosine-1-phosphate]", "values": [{"measurement": "scratching behavior vs. vehicle", "setting": "[2]; S1PR3-deficient mice (S1PR3 −/−), 200 nM intradermally, 30 minutes post injection", "result": "no difference"}, {"measurement": "scratching behavior", "setting": "[2]; mice (FIG. 1E), S1PR3-dependent opening of TRPA1", "result": "leads to scratching behavior in mice"}, {"measurement": "calcium responses in cultured DRG neurons", "setting": "[1]; [6]", "result": "lack calcium responses"}, {"measurement": "calcium responses in cultured DRG neurons", "setting": "[1]; [7]", "result": "robust responses"}, {"measurement": "excitability of mechanical nociceptor DRG neurons", "setting": "[3]", "result": "increases the excitability"}]}
{"smiles": "Oc1ccc(Nc2nc(-c3ccc(Cl)cc3)cs2)cc1", "note": "[SKI II, 2-(p-hydroxyanilino)-4-(p-chlorophenyl)thiazole]", "values": [{"measurement": "mechanical pain sensitivity after block of local production of S1P", "setting": "[4]; injection of 50 μM", "result": "mechanical pain sensitivity was dependent on local S1P in the skin"}, {"measurement": "CFA thermal hypersensitivity", "setting": "[5]; acute injection into the CFA-treated paw", "result": "reverses"}]}
{"smiles": "CC(C)(C)C(=O)C(=Nc1ccc(Cl)cc1)NNc1ccc(Cl)cc1", "note": "[TY 52156, N-(4-Chlorophenyl)-3,3-dimethyl-2-oxobutanimidic 2-(4-chlorophenyl) hydrazide]", "values": [{"measurement": "effect on S1P-evoked calcium responses", "setting": "[1]; wild-type DRG sensory neurons", "result": "attenuates"}, {"measurement": "effect on the effects of the allosteric agonist CYM (calcium imaging)", "setting": "[1]; wild-type DRG sensory neurons", "result": "does not block"}, {"measurement": "mechanosensitivity", "setting": "[4]; [8]", "result": "promotes mechanical hyposensitivity"}, {"measurement": "responsiveness to noxious tactile stimuli", "setting": "[4]; [8]", "result": "decreases responsiveness"}, {"measurement": "mechanical thresholds", "setting": "[5]; [9]", "result": "to pre-CFA, baseline levels"}, {"measurement": "thermal thresholds", "setting": "[5]; [9]", "result": "to pre-CFA, baseline levels"}]}
{"smiles": "CCCCCCc1cccc(NC(=O)[C@H](N)CCP(=O)(O)O)c1", "note": "[W146]", "values": [{"measurement": "mechanosensitivity", "setting": "[4]; [8]", "result": "no effect"}]}
